Consider three compounds from publication doi:10.1101/2023.10.24.563163v2, “Targeting cancer with small molecule pan-KRAS degraders” (biorxiv, 2024).

Like-named read-outs stand apart in the source and are kept apart here. Some results are limits rather than exact numbers.

Test in all cases: cells
In assay [1] the test system is NCI-H358. The arrangement: DUSP6 modulation. The settings on record: Homo sapiens, NCI-H358, 6 h; read-out: IC50 DUSP6. An excerpt: (§1) Next, we set out to test the ability of a single pan-KRAS degrading molecule, compound 4, to selectively suppress oncogenic signaling and proliferation in cancer cell lines driven by diverse KRAS mutants. To this end, we first confirmed degradation of KRAS by compound 4 in KRAS-dependent (GP2d, SW620 and NCI-H358 expressing KRAS^G12D, - G12V or -G12C, respectively) as well as in KRAS independent (A-375, HEK293) cell lines (Fig. 3A, fig. S4A). […] Both inhibition and degradation repressed the established markers of MAPK signaling pERK (fig. S4B-D) and DUSP6 (Fig. 3B, fig. S4E) in KRAS dependent cell lines. […] Neither degradation nor inhibition had appreciable antiproliferative effects in the KRAS independent cell lines A-375 and HEK293 (Fig. 3C, fig. S4F).

Assay [2] relates to GP2d. The arrangement: DUSP6 modulation. The settings on record: GP2d, 6 h; read-out: IC50 DUSP6.
Excerpt: as §1

In assay [3] the test system is SW620. The arrangement: DUSP6 modulation. The note with it: Homo sapiens, SW-620, 6 h; read-out: IC50 DUSP6.
Excerpt: as §1

The subject of assay [4] is HEK293. Also noted: pERK levels by capillary electrophoresis. The note with it: Homo sapiens, HEK293, 6 h. The protocol:
(§2) Protein Detection by Capillary Electrophoresis Cells (50 000) were seeded the day before treatment into 96-well clear-flat bottom plates and incubated overnight (37 °C, humidified tissue culture incubator, 5% CO2). Compounds were added from DMSO stock solution using a digital dispenser and cells are incubated at 37 °C as specified (24 hours for KRAS degradation, 6 hours for determination of pERK levels). At the end of the incubation, medium was removed, cells washed with ice cold PBS, PBS removed and 50 µL lysis buffer (Meso Scale Discovery #R60TX-2) supplemented with 1:100 protease inhibitor solution, 1:100 phosphatase inhibitor I, 1:100 phosphatase inhibitor II (Meso Scale Discovery #R70AA-1), 0.5 µL/mL Benzonase (Novagen #70664-3) and 10 mM dithiothreitol added to each well. Plates with lysis buffer were immediately transferred to -80 °C freezer for at least 2 hours and then thawed on ice. Lysates were transferred to a 96 well V-bottom plate and insoluble debris was pelleted by centrifugation for 20 min. at 4 000 rpm. 40 µL of the supernatant were transferred to a fresh Eppendorf PCR plate. Analysis of protein levels was conducted using the Wes System, ProteinSimple (https://www.bio-techne.com/) as specified by the manufacturer. Briefly, Wes Master Mix (12-230 kDa WES Separation Module, 8 × 25 capillary cartridges, ProteinSimple #SM-W004) and molecular weight markers were prepared as specified in the manufacturer’s recommendations. To detect primary antibodies, anti-rabbit (Protein Simple #DM-001) or anti-mouse (Protein Simple #DM-002) detection modules were used. 7.2 µL lysate + 1.8 µL master mix were combined and heated to 95 °C for 5 min. Th

Assay [5] relates to A375. The arrangement: pERK levels by capillary electrophoresis. The note with it: Homo sapiens, A-375, 6 h. The protocol:
as §2

Assay [6] relates to NCI-H358. Also noted: pERK levels by capillary electrophoresis. The settings on record: Homo sapiens, NCI-H358, 6 h. The protocol:
as §2

For assay [7], the system named is SW620. The arrangement: pERK levels by capillary electrophoresis. The settings on record: Homo sapiens, SW-620, 6 h. As for the experimental part:
as §2

Assay [8] has as its system NCI-H358. Also noted: Inhibition of cell proliferation, 5 days. The note with it: Homo sapiens, NCI-H358, 120 h; read-out: IC50 Proliferation NCI-H358.
Excerpt: as §1, with “S4F). […] Pan-KRAS degradation impacts MAPK signaling and cancer cell proliferation.” for “S4F).”

Turning to `Cc1ncsc1-c1ccc(CNC(=O)C2CC(O)CN2C(=O)C(c2cc(OCCCCN3CCCN(c4nccc(-c5noc(C6(C)CCCc7sc(N)c(C#N)c76)n5)n4)C(C)C3)no2)C(C)C)cc1` (centres unmarked) [compound 5], the IC50 is 138 nM in assay [1]; 245 nM in assay [2]; 429 nM in assay [3]; over 1000 nM in assay [4]; over 1000 nM in assay [5]; over 1000 nM in assay [6]. This compound also gave an IC50 in assay [7] of over 1000 nM.

For `Cc1ncsc1-c1ccc(CNC(=O)[C@@H]2C[C@@H](O)CN2C(=O)[C@@H](c2cc(OCCCCN3CCCN(c4nccc(-c5noc([C@@]6(C)CCCc7sc(N)c(C#N)c76)n5)n4)[C@@H](C)C3)no2)C(C)C)cc1` [compound 4], the IC50 is 11.4 nM in assay [1]; 3.3 nM in assay [2]; 6.2 nM in assay [3]; over 1000 nM in assay [4]; over 1000 nM in assay [5]; 8.2 nM in assay [6]. The results for the IC50 in assay [7] and in assay [8] were 9.2 nM and 85.4 nM, respectively.

On to `Cc1ncsc1-c1ccc(CNC(=O)[C@@H]2C[C@@H](O)CN2C(=O)[C@@H](NC(=O)CCCCCN2CCCN(c3nccc(-c4noc([C@@]5(C)CCCc6sc(N)c(C#N)c65)n4)n3)[C@@H](C)C2)C(C)(C)C)cc1` [compound 3], for which the IC50 in assay [1] was 248 nM; in assay [2], 129 nM; in assay [3], 205 nM; in assay [4], over 1000 nM; in assay [5] it was over 1000 nM; in assay [6] it was over 1000 nM. The IC50 in assay [7] amounted to 708 nM; in assay [8], 983 nM.
